Measurements reported in patent publication US20240090503A1, “FUNGICIDAL OXADIAZOLES AND THEIR MIXTURES” (FMC CORPORATION, priority 2020, published 2024).

What was measured:
[1] = tested on: Phakopsora pachyrhizi (the causal agent of Asian soybean rust); experiment: Test A: preventive spray on soybean seedlings, Asian soybean rust, visual disease rating; format: in vivo; settings: soybean seedlings
Outline: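 Preventive test: soybean seedlings received a run-off spray of compound suspended at the set ppm in 50/50 acetone/water plus 250 ppm PEG400, and one day later a P. pachyrhizi spore inoculum. Visual scoring (0 none to 100 full disease control) followed 24 h saturated incubation and 8 days' growth chamber, both at 22° C.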

[2] = tested on: Puccinia recondita f. sp. tritici (the causal agent of wheat leaf rust); experiment: Test C: preventive spray on wheat seedlings, wheat leaf rust, visual disease rating; format: in vivo; settings: wheat seedlings
Outline: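 Wheat seedlings sprayed to run-off with compound in acetone/water (50/50) with 250 ppm PEG400, then inoculated with spores the following day. After 24 h saturated humidity at 20° C. and 6 days in growth chamber at 20° C., disease rated visually as % control relative to untreated controls.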

[3] = test suspension 10 ppm, 100 = 100% disease control, 0 = no control
[4] = 10 ppm test suspension, 100 = 100% disease control, 0 = no control

Compound | Test A disease control rating [1, 3] [%] | Test C disease control rating ([2]; test suspension 10 ppm) [%] | Test A disease control rating [1, 4] [%] | Test C disease control rating [2, 4] [%] | further results
CC(C)ONC(=O)c1cnn(Cc2ccc(-c3noc(C(F)(F)F)n3)cc2)c1 [compound 270] | 100 | 100 | – | – | –
CCOC(=O)c1cnn(Cc2cc(-c3noc(C(F)(F)F)n3)cs2)c1 [compound 271] | 99 | 68 | – | – | –
CONC(=O)c1cnn(Cc2ccc(-c3noc(C(F)(F)F)n3)cc2)c1 [compound 272] | 100 | 100 | – | – | –
CC(C)(C)ONC(=O)c1cnn(Cc2ccc(-c3noc(C(F)(F)F)n3)cc2)c1 [compound 273] | 100 | 100 | – | – | –
N#CCCCOC(=O)c1cnn(Cc2ccc(-c3noc(C(F)(F)F)n3)cc2)c1 [compound 274] | 100 | 100 | – | – | –
COC(=O)C=CCOC(=O)c1cnn(Cc2ccc(-c3noc(C(F)(F)F)n3)cc2)c1 [compound 275] | 100 | 100 | – | – | –
O=C1c2ccnn2CCN1Cc1ccc(-c2noc(C(F)(F)F)n2)cc1 [compound 297] | 100 | 93 | – | – | –
O=C(OCC#Cc1ccccc1)c1cnn(Cc2ccc(-c3noc(C(F)(F)F)n3)cc2)c1 [compound 299] | 100 | 86 | – | – | –
CC(C#N)OC(=O)c1cnn(Cc2ccc(-c3noc(C(F)(F)F)n3)cc2)c1 (stereo not shown) [compound 300] | 94 | 9 | – | – | –
N#Cc1ccc(COC(=O)c2cnn(Cc3ccc(-c4noc(C(F)(F)F)n4)cc3)c2)cc1 [compound 301] | 100 | 100 | – | – | –
CCOC(=O)c1cn(Cc2ccc(-c3noc(C(F)(F)F)n3)cc2)nn1 [compound 303] | 100 | 100 | – | – | –
CCOC(=O)c1cnn(Cc2ccc(-c3noc(C(F)(F)F)n3)cc2F)c1 [compound 304] | 100 | 100 | – | – | –
CCOC(=O)c1cnn(CCOc2ccc(-c3noc(C(F)(F)F)n3)cc2)c1 [compound 308] | 0 | 0 | – | – | –
COc1ccc(C(O)c2ccc(-c3noc(C(F)(F)F)n3)cc2)cc1 (stereo not shown) [compound 309] | – | – | – | – | Test A disease control rating ([1]; test suspension 50 ppm): 100%; Test C disease control rating ([2]; test suspension 50 ppm): 68%
CCOC(=O)c1cnn(Cc2cc(OC)c(-c3noc(C(F)(F)F)n3)s2)c1 [compound 336] | 0 | 0 | – | – | –
CCC#CCOC(=O)c1cnn(Cc2ccc(-c3noc(C(F)(F)F)n3)cc2)c1 [compound 339] | 100 | 98 | – | – | –
CN1CCCC1COC(=O)c1cnn(Cc2ccc(-c3noc(C(F)(F)F)n3)cc2)c1 (stereo not shown) [compound 340] | 100 | 94 | – | – | –
COC(=O)c1cccc2c1cnn2Cc1ccc(-c2noc(C(F)(F)F)n2)cc1 [compound 341] | 100 | 100 | – | – | –
C[Si](C)(C)C#CCOC(=O)c1cnn(Cc2ccc(-c3noc(C(F)(F)F)n3)cc2)c1 [compound 348] | 100 | 96 | – | – | –

Compound | Test A disease control rating [1, 3] [%] | Test C disease control rating ([2]; test suspension 10 ppm) [%] | Test A disease control rating [1, 4] [%] | Test C disease control rating [2, 4] [%] | further results
CC(=O)COC(=O)c1cnn(Cc2ccc(-c3noc(C(F)(F)F)n3)cc2)c1 [compound 349] | 100 | 100 | – | – | –
CON=C(C)COC(=O)c1cnn(Cc2ccc(-c3noc(C(F)(F)F)n3)cc2)c1 [compound 350] | 100 | 99 | – | – | –
FC(F)(F)c1nc(-c2ccc(CN3CCc4ccccc4C3)cc2)no1 [compound 351] | 92 | 67 | – | – | –
FC(F)(F)c1nc(-c2ccc(CCCn3ccc(-c4ccccc4)n3)cc2)no1 [compound 360] | 100 | 68 | – | – | –
FC(F)(F)c1nc(-c2ccc(CCCn3ccc(-c4ccc(Cl)cc4)n3)cc2)no1 [compound 361] | 100 | 0 | – | – | –
CCOC(=O)c1cnn(COCc2ccc(-c3noc(C(F)(F)F)n3)cc2)c1 [compound 362] | – | – | – | – | Test A disease control rating ([1]; test suspension 50 ppm): 100%; Test C disease control rating ([2]; test suspension 50 ppm): 100%
O=C(O)c1cnn(CCCc2ccc(-c3noc(C(F)(F)F)n3)cc2)c1 [compound 363] | – | – | – | – | Test A disease control rating ([1]; test suspension 50 ppm): 100%; Test C disease control rating ([2]; test suspension 50 ppm): 100%
CCOC(=O)C1=NOC(Cc2ccc(-c3noc(C(F)(F)F)n3)s2)C1 (stereo not shown) [compound 366] | – | – | – | – | Test A disease control rating ([1]; test suspension 50 ppm): 100%; Test C disease control rating ([2]; test suspension 50 ppm): 100%
O=C(O)C1=NOC(Cc2ccc(-c3noc(C(F)(F)F)n3)s2)C1 (stereo not shown) [compound 367] | – | – | – | – | Test A disease control rating ([1]; test suspension 50 ppm): 96%; Test C disease control rating ([2]; test suspension 50 ppm): 67%
CNC(=O)C1=NOC(Cc2ccc(-c3noc(C(F)(F)F)n3)s2)C1 (stereo not shown) [compound 368] | – | – | – | – | Test A disease control rating ([1]; test suspension 50 ppm): 100%; Test C disease control rating ([2]; test suspension 50 ppm): 100%
CCNC(=O)C1=NOC(Cc2ccc(-c3noc(C(F)(F)F)n3)s2)C1 (stereo not shown) [compound 369] | – | – | – | – | Test A disease control rating ([1]; test suspension 50 ppm): 100%; Test C disease control rating ([2]; test suspension 50 ppm): 100%
C#CCOC(=O)c1cnn(CCCc2ccc(-c3noc(C(F)(F)F)n3)cc2)c1 [compound 374] | 100 | 96 | – | – | –
Cc1ccc(F)cc1OCc1ccc(-c2noc(C(F)(F)F)n2)s1 [compound 375] | 100 | 98 | – | – | –
CCOC(=O)CNC(=O)c1cnn(Cc2ccc(-c3noc(C(F)(F)F)n3)cc2)c1 [compound 378] | 100 | 98 | – | – | –
CN(CC#N)C(=O)c1cnn(Cc2ccc(-c3noc(C(F)(F)F)n3)cc2)c1 [compound 379] | – | – | 100 | 97 | –
CCONC(=O)c1cnn(Cc2ccc(-c3noc(C(F)(F)F)n3)cc2)c1 [compound 380] | – | – | 100 | 100 | –
Nc1cnn(Cc2ccc(-c3noc(C(F)(F)F)n3)cc2)c1 [compound 381] | – | – | 0 | 0 | –
O=[N+]([O-])c1cnn(Cc2ccc(-c3noc(C(F)(F)F)n3)cc2)c1 [compound 382] | – | – | 100 | 96 | –
FC(F)(F)c1nc(-c2ccc(Cn3cc(I)cn3)cc2)no1 [compound 383] | – | – | 71 | 68 | –

Compound | Test A disease control rating [1, 3] [%] | Test C disease control rating ([2]; test suspension 10 ppm) [%] | Test A disease control rating [1, 4] [%] | Test C disease control rating [2, 4] [%] | further results
CCON=Cc1cnn(Cc2ccc(-c3noc(C(F)(F)F)n3)cc2)c1 [compound 384] | – | – | 100 | 100 | –
CCCON=Cc1cnn(Cc2ccc(-c3noc(C(F)(F)F)n3)cc2)c1 [compound 385] | – | – | 100 | 100 | –
C=CCON=Cc1cnn(Cc2ccc(-c3noc(C(F)(F)F)n3)cc2)c1 [compound 386] | – | – | 100 | 100 | –
C#CCON=Cc1cnn(Cc2ccc(-c3noc(C(F)(F)F)n3)cc2)c1 [compound 387] | – | – | 100 | 99 | –
CC(C)ON=Cc1cnn(Cc2ccc(-c3noc(C(F)(F)F)n3)cc2)c1 [compound 388] | – | – | 100 | 100 | –
CC(=O)NN=Cc1cnn(Cc2ccc(-c3noc(C(F)(F)F)n3)cc2)c1 [compound 389] | – | – | 100 | 100 | –
CS(=O)(=O)CCOC(=O)c1cnn(Cc2ccc(-c3noc(C(F)(F)F)n3)cc2)c1 [compound 390] | – | – | 100 | 100 | –
CCOC(CC(=O)c1cnn(Cc2ccc(-c3noc(C(F)(F)F)n3)cc2)c1)OCC [compound 391] | – | – | 100 | 100 | –
O=C(OCC(F)F)c1cnn(Cc2ccc(-c3noc(C(F)(F)F)n3)cc2)c1 [compound 392] | – | – | 100 | 100 | –
CN(C)C(=O)c1cnn(CCCc2ccc(-c3noc(C(F)(F)F)n3)cc2)c1 [compound 406] | – | – | 100 | 93 | –
Nc1ncnc2c1cnn2Cc1ccc(-c2noc(C(F)(F)F)n2)cc1 [compound 407] | – | – | 100 | 100 | –
FC(F)(F)c1nc(-c2ccc(Cn3ncc4ncccc43)cc2)no1 [compound 408] | – | – | 100 | 100 | –
FC(F)(F)c1nc(-c2ccc(Cn3cc4ncccc4n3)cc2)no1 [compound 409] | – | – | 100 | 100 | –
CCCCOC(=O)c1cnn(Cc2ccc(-c3noc(C(F)(F)F)n3)cc2)c1 [compound 410] | – | – | 100 | 100 | –
O=C(OCC1CC1)c1cnn(Cc2ccc(-c3noc(C(F)(F)F)n3)cc2)c1 [compound 411] | – | – | 100 | 100 | –
O=C(OCc1ccccc1)c1cnn(Cc2ccc(-c3noc(C(F)(F)F)n3)cc2)c1 [compound 412] | – | – | 100 | 100 | –
FC(F)(F)c1nc(-c2ccc(Cn3ncc4cc(Br)cnc43)cc2)no1 [compound 413] | – | – | 100 | 68 | –
FC(F)(F)c1nc(-c2ccc(Cn3cc4cc(Br)cnc4n3)cc2)no1 [compound 414] | – | – | 100 | 100 | –
